One compound from patent US12564580B2, “Mitochondria-targeted isoketal/isolevuglandin scavengers and uses thereof” (Vanderbilt University, priority 2020, dated 2026) can be followed below.

Structures are written as SMILES.

One data set is described as follows: Water solubility. In kind it is physicochemical. The source says:
Mito2HOBA is a water-soluble compound which can be supplied in the media and provided to animals in the drinking water.

Data set [1] deals with human aortic endothelial cells (HAEC). The data set can be described thus: Mitochondrial superoxide in human aortic endothelial cells stimulated with angiotensin II plus TNFα (mitoSOX HPLC). The class given is cell-based. The following applies: 50 nM, angiotensin II plus TNFα for 4-hours. As for the experimental part:
(§1) FIGS. 9A and B show the effect of mito2HOBA on mitochondrial superoxide and cardiolipin oxidation in human aortic endothelial cells induced by angiotensin II plus TNFα. (A) Mitochondrial superoxide was measured by HPLC analysis of mitoSOX-superoxide specific product, mito-2-hydroxyethidium (Mito-2OH-Et+). […] (B) Cardiolipin oxidation induced by Angiotensin II+TNFα measured my LC/MS. […] Data are mean±SEM. *P<0.01 vs Control, **P<0.01 vs Angiotensin II+TNFα (n=4).
(§2) Human aortic endothelial cells (HAEC) were purchased from Lonza (Chicago, IL) and cultured in EGM-2 medium supplemented with 2% FBS but without antibiotics. On the day before the study, the FBS concentration was reduced to 1%.
We tested if mito2HOBA reduces mitochondrial oxidative stress in human aortic endothelial cells (HAEC) stimulated with angiotensin II plus TNFα for 4-hours (FIG. 9). Indeed, supplementation of HAEC with mito2HOBA (50 nM) reduced mitochondrial superoxide production stimulated by TNF[…] and Ang II as measured by accumulation of specific superoxide-MitoSOX product, 2-OH-Mito-Ethidium.

For data set [2] the test system is unchanged. The data set can be described thus: Cardiolipin oxidation in human aortic endothelial cells stimulated with angiotensin II plus TNFα (LC/MS). In kind it is cell-based. The settings on record: 50 nM. As for the experimental part: as §1
Cardiolipin oxidation in human aortic endothelial cells was measured by Liquid Chromatography-Mass Spectrometry (LC/MS) as described previously.^44 The extracted lipid fraction was separated online by UPLC using a Waters Acquity UPLC system (Waters Corp., Milford, MA). Mass Spectrometry analysis was performed on a Thermo Quantum Ultra triple quadrupole mass spectrometer (Thermo Scientific Inc., San Jose, CA, USA).
as §2

Data set [3] relates to C57Bl/6J mice, Ang II-induced hypertension. The data set can be described thus: Blood pressure in angiotensin II model of hypertension (tail-cuff and telemetry). The class given is in vivo, mouse. The text has this:
FIGS. 10A-D show the effect of mito2HOBA on angiotensin II-induced hypertension and accumulation of mitochondrial isoLGs protein adducts. (A) Blood pressure tail-cuff measurements in male Sham or angiotensin II-infused mice supplied with mito2HOBA in drinking water (0.1 g/L) or equimolar amount of untargeted analog 2HOBA (0.17 mmol/L). (B) Telemetry studies of blood pressure in angiotensin II-infused mice supplied with mito2HOBA or plain water as a vehicle. (C) Representative LC/MS/MS chromatograms of isoLG-Lysyl-Lactam adduct; (D) isoLG-Lys-Lactam levels in kidney mitochondria isolated from Sham or angiotensin II-infused mice supplied with mito2HOBA. Results are mean±SEM. *P<0.01 vs Sham, **P<0.01 vs Ang II (n=8).
Hypertension was induced by angiotensin II ([…]) as described previously. To test the therapeutic potential of scavenging of mitochondrial isoLGs, wild-type C57B1/6J male and female mice (Jackson Labs) received saline or angiotensin II minipump placement, and provided with the plain water (vehicle) or mito2HOBA in the drinking water (0.1 g/liter). Blood pressure was monitored by the telemetry and tail-cuff measurements as previously described. The Vanderbilt Institutional Animal Care and Use Committee approved the procedures (Protocol M1700207). Simple randomization was used to select animals for sham, angiotensin II or mito2HOBA groups for equal chance of being allocated to treatment groups.
To test a functional role of mitochondrial isoLGs in hypertension, we used an Ang II model of hypertension, and monitored blood pressure by tail-cuff (FIG. 10A) and telemetry (FIG. 10B). […] Infusion of wild-type C57B1/6J mice with Ang II (0.7 mg/kg/day) increased systolic blood pressure to 162 mm Hg.

Data set [4] has as its system kidney (renal cortex and medulla). The data set can be described thus: Kidney histological analyses in LPS model.
Description: Three months old C57BL/6J mice (25-28 g) were supplemented with mito2HOBA (drinking water, 0.1 g/L) for 72 hours prior to LPS injection (25 μg/g). […] (C) Histopathological scores of renal injuries as described in methods section. […] Data are mean±STD *P<0.01 vs LPS (n=6), *P<0.01 vs LPS (n=10).
FIGS. 6A-H show histological analysis of cellular injury in kidneys of control, mito2HOBA supplemented, LPS-injected and LPS+mito2HOBA-treated mice. Representative sections from control mice show normal glomeruli (g), proximal tubules (P), and distal tubules (*) in the cortex (A) and medulla (B).
Kidneys were harvested from mice and placed immediately in 10% formalin. Following fixation, kidneys were washed with saline, placed in 70% ethanol, and processed in the following sequence: 70% ethanol; 80% ethanol; 95% ethanol; 100% ethanol; 100% xylene. Then kidneys were embedded in POLY/Fin paraffin (ThermoFisher). Five-μm sections were cut using a Leitz 1512 microtome and were mounted on glass slides. Sections were stained with hematoxylin and eosin and were viewed using an Olympus IX70 microscope. Images were captured with a Jenoptix Progress C12 digital camera. Histopathological scores of kidneys were measured as follows: (0) No tubular injury; (1) <10% tubules injured; (2) 10-25% tubules injured; (3) 25-50% tubules injured; (4) 50-75% tubules injured; (5) >75% tubules injured.
Setting [5] is: LPS plus mito2HOBA vs LPS alone.

With `NCc1ccc(OCCCC[P+](c2ccccc2)(c2ccccc2)c2ccccc2)cc1O` [mito2HOBA], the water solubility entry in “Water solubility” is “water-soluble”. The mitochondrial superoxide production entry in data set [1] is recorded as “reduced”. In data set [2], the cardiolipin oxidation entry is listed as “inhibited”. This compound came in with a systolic blood pressure in data set [3] (Ang II 0.7 mg/kg/day, mito2HOBA 0.1 g/L drinking water, tail-cuff and telemetry (Ang II alone 162)) of 140 mm Hg. Also, the “blood pressure in control mice” value in data set [3] (mito2HOBA alone, no Ang II) is given as “did not affect”. The renal cortex injury entry in data set [4] (LPS plus mito2HOBA) is recorded as “the cortex appeared normal”. Moreover, in data set [4] (setting [5]), the “histopathological scores of renal injuries” value is “significant reduction in cellular injury”; the renal medulla injury entry was “the extent and degree of injury was less”. In addition, the “kidney histology, mito2HOBA alone” value in data set [4] (mice supplemented with mito2HOBA without LPS) is given as “appeared normal”.
